Our source for the inhibition values is US9562036B2, “Fluoromethyl-substituted pyrrole carboxamides as CaV2.2 calcium channel blockers” (GRÜNENTHAL GMBH, priority 2013, dated 2017).

A value given as a limit tells only on which side of the number the result lay.

The test deals with T1, Human CaV2.2 channels (Homo sapiens, UniProt Q00975).
T1 construct: expressed in transfected cells; also stably expressing Kir2.3)
Description: Fluorescent assay for CaV2.2 channels using potassium depolarization to induce channel opening (FLIPR, Fluo 4). In kind it is cell-based. The settings on record: 3 μM test compound; 30 mM KCl alternative assay buffer (inactivated channel state); HEK293 cells; read-out: %-Inhib (CaV2.2) @3 μM @30 mM KCl. The text has this: In the process, the Ca^2+ influx is quantified in the FLIPR assay with the aid of a Ca^2+-sensitive dye (type Fluo-4, Molecular Probes Europe BV, Leiden, the Netherlands) in a fluorescent imaging plate reader (FLIPR 3, Molecular Devices, Sunnyvale, USA), as described hereinafter.
2. Assay Descriptions and Biological Data: 2.1 Fluorescent Assay for CaV2.2 Channels Using Potassium Depolarization to Induce Channel Opening
Human CaV2.2 channels were stably expressed in HEK293 cells together with alpha2-delta and beta subunits of voltage gated calcium channels. In addition, an inwardly rectifying potassium channel (Kir2.3) was stably expressed in these cells to augment control of the cell membrane potential by the concentration of extracellular potassium ions. Raise of the extracellular potassium concentration leads to depolarization of the membrane potential and thus regulates the voltage dependent state of CaV2.2 channels. For preparation, cells were seeded in black poly-D-lysine coated 96-well plates (Becton Dickinson, Biocoat 4640) in 100 μL medium [500 mL DMEM/F-12 plus Glutamax (Invitrogen 31331-093) plus 5.5 mL MEM NEAA 100× (Invitrogen 11140-035) plus 50 mL FBS decomplemented (Invitrogen 10270-106) plus 200 μg/mL Geneticin (Invitrogen 10131-027) plus 50 μg/mL Hygromycin B (Invitrogen 10687-010) plus 2 μg/mL Blasticidin (anti-bl5b Invivo-Gen) plus 0.2 μg/mL Puromycin (A 11138-03)] at a cell density of 30.000 cells per well. Plates were incubated at 37° C. (5% CO2) for 20 to 23 h. On the day of experiment medium was discarded and cells were loaded with Fluo 4 by addition of 100 μL of basic assay buffer (10 mM HEPES, 1 mM KCl, 149 mM NaCl, 0.8 mM CaC2, 1.7 mM MgCl2, 10 mM Glucose, 0.1% BSA. pH 7.4) containing 2 μM Fluo 4 (Molecular Probes; F-14201), 0.01% pluronic acid (Molecular Probes; P-6866) and 2.5 mM probenecid (Molecular Probes; P36400). Cells were incubated in the dark at 25° C. for 60 min. Then dye containing buffer was discarded and 100 μL basic (1 mM KCl) or alternative (30 mM KCl) assay buffer was added. The alternative assay buffer contained altered concentrations of KCl (30 mM) and NaCl (120 mM) and was used in order to promote the inactivated channel state. After that 25 μL of basic or alternative assay buffer with or without test compound were added and cells were incubated again in the dark at 25° C. for 15 min. Fluorescence intensity was measured on a FLIPR 3 instrument (Molecular Devices Corp., Sunnyvale, Calif.) with excitation at 480 nm and emission at 535 nm. After continuously reading fluorescence for 30 sec, 50 μL of basic assay buffer containing 210 mM KCl (NaCl omitted) were added for depolarization. Peak fluorescent signal intensity was determined and the amplitude of the peak signal, normalized to base line, was used to measure channel inhibition by test compounds.

T1 sequence (Q00975 whole entry): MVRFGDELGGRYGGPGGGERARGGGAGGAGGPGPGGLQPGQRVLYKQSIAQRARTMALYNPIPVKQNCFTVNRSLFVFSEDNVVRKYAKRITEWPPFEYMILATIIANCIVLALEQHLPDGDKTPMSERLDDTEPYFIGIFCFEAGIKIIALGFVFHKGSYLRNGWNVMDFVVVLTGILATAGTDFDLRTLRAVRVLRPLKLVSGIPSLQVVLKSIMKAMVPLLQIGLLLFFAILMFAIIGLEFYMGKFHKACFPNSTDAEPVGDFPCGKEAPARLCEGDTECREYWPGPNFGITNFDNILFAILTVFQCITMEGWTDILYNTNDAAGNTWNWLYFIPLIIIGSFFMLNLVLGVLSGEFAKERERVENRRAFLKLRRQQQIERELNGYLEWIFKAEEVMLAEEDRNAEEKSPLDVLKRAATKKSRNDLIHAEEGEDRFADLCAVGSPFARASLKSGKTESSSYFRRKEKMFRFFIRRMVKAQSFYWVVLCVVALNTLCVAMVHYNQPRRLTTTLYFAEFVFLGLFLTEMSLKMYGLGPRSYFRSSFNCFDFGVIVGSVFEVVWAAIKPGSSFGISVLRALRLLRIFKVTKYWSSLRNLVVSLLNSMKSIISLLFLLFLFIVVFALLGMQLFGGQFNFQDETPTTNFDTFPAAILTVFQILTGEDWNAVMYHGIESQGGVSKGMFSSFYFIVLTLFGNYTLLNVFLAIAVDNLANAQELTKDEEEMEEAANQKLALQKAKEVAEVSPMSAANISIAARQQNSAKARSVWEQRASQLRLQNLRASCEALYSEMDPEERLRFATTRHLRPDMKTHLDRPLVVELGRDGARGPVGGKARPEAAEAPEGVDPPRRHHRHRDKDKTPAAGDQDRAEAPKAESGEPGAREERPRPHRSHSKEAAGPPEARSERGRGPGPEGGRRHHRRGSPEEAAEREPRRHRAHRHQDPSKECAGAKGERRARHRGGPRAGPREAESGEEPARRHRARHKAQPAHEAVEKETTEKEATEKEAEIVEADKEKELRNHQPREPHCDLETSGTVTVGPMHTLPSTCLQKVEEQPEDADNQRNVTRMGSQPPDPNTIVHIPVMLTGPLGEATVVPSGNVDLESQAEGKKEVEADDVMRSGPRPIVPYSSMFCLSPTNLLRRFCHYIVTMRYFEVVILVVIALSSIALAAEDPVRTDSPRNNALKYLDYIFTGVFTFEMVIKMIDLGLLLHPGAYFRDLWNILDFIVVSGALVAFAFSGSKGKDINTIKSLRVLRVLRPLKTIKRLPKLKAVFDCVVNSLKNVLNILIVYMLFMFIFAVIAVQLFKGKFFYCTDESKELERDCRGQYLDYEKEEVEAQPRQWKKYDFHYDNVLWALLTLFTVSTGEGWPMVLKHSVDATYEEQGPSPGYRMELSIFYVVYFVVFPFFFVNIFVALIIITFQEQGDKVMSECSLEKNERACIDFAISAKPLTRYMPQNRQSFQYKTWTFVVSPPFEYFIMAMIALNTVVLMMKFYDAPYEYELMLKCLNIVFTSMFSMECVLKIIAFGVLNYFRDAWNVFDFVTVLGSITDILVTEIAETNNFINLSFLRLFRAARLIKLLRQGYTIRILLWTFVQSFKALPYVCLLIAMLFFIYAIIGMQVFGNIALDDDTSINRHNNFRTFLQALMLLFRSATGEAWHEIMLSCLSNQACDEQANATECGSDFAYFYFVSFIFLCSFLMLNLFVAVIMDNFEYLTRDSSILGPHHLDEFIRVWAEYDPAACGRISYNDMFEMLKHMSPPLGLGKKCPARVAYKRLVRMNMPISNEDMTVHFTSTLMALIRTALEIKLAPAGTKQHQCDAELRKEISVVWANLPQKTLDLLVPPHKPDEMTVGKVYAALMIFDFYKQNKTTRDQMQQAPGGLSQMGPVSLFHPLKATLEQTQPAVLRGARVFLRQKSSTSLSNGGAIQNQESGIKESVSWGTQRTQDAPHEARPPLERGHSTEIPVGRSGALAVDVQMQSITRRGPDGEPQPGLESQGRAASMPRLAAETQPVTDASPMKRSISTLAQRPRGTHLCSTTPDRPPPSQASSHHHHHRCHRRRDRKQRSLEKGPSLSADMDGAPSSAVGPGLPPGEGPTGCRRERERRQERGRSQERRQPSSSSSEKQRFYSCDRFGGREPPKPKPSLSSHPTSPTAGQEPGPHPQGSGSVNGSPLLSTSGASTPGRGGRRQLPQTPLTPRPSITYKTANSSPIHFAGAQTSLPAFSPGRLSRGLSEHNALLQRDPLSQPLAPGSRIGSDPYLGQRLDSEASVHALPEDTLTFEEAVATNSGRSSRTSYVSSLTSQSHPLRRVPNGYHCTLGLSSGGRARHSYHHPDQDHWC

Consider `Cc1c(-c2ncc(Cl)cn2)c(C(=O)N(C)CC(C)(C)C(=O)N(C)C)n(Cc2ccccc2)c1C(F)(F)F` [Example 58, 1-Benzyl-3-(5-chloro-pyrimidin-2-yl)-N-[2-(dimethyl-carbamoyl)-2-methyl-propyl]-N,4-dimethyl-5-(trifluoromethyl)-1H-pyrrole-2-carboxylic acid amide], for which the inhibition at 3 µM was above 95%. As for `Cc1cc(C#N)ncc1-c1c(C)c(C(F)(F)F)n(Cc2ccccc2)c1C(=O)N1CCOCC1` [Example 26, 5-[1-Benzyl-4-methyl-2-(morpholine-4-carbonyl)-5-(trifluoromethyl)-1H-pyrrol-3-yl]-4-methyl-pyridine-2-carbonitrile], the inhibition at 3 µM lay within 75 to 95%. The figure for `Cc1c(-c2ncc(Cl)cn2)c(C(=O)N(C)CC(C)(C)C)n(Cc2ccccc2)c1C(F)(F)F` [Example 18, 1-Benzyl-3-(5-chloro-pyrimidin-2-yl)-N-(2,2-dimethyl-propyl)-N,4-dimethyl-5-(trifluoromethyl)-1H-pyrrole-2-carboxylic acid amide] is above 95%; for `COc1ncc(-c2c(C)c(C(F)(F)F)n(Cc3ccccc3)c2C(=O)N(C)CC(C)(C)C)cn1` [Example 12, 1-Benzyl-N-(2,2-dimethyl-propyl)-3-(2-methoxy-pyrimidin-5-yl)-N,4-dimethyl-5-(trifluoromethyl)-1H-pyrrole-2-carboxylic acid amide] it is 75 to 95%; for `Cc1noc(C)c1-c1c(C)c(C(F)(F)F)n(Cc2ccccc2)c1C(=O)N(C)CC(C)(C)C` [Example 16, 1-Benzyl-3-(3,5-dimethyl-isoxazol-4-yl)-N-(2,2-dimethyl-propyl)-N,4-dimethyl-5-(trifluoromethyl)-1H-pyrrole-2-carboxylic acid amide] it is 75 to 95%. For `Cc1c(-c2ccn(C)n2)c(C(=O)N(C)C(C)C)n(Cc2ccccc2)c1C(F)(F)F` [Example 51, 1-Benzyl-N-isopropyl-N,4-dimethyl-3-(1-methyl-1H-pyrazol-3-yl)-5-(trifluoromethyl)-1H-pyrrole-2-carboxylic acid amide], the inhibition at 3 µM was 75 to 95%. `Cc1cc(Cl)ncc1-c1c(C)c(C(F)(F)F)n(Cc2ccccc2)c1C(=O)N(C)CC(C)(C)C` [Example 20, 1-Benzyl-3-(6-chloro-4-methyl-pyridin-3-yl)-N-(2,2-dimethyl-propyl)-N,4-dimethyl-5-(trifluoromethyl)-1H-pyrrole-2-carboxylic acid amide]: the inhibition at 3 µM fell in the range of 75 to 95%. The figure for `Cc1c(-c2ccc(Cl)cn2)c(C(=O)N(C)C(C)C)n(Cc2ccccc2)c1C(F)(F)F` [Example 50, 1-Benzyl-3-(5-chloro-pyridin-2-yl)-N-isopropyl-N,4-dimethyl-5-(trifluoromethyl)-1H-pyrrole-2-carboxylic acid amide] is above 95%. Then `Cc1c(-c2cn[nH]c2)c(C(=O)N(C)CC(C)(C)C)n(Cc2ccccc2)c1C(F)(F)F` [Example 09, 1-Benzyl-N,4-dimethyl-N-neopentyl-3-(1H-pyrazol-4-yl)-5-(trifluoromethyl)-1H-pyrrole-2-carboxamide], with 75 to 95%; and `Cc1c(-c2cn[nH]c2)c(C(=O)N2CCOCC2)n(Cc2ccccc2)c1C(F)(F)F` [Example 10, (1-Benzyl-4-methyl-3-(1H-pyrazol-4-yl)-5-(trifluoromethyl)-1H-pyrrol-2-yl)(morpholino)methanone], with 40 to 75%. For the compound `Cc1c(-c2ccc(O)nc2)c(C(=O)N(C)CC(C)(C)C)n(Cc2ccccc2)c1C(F)(F)F` [Example 03, 1-Benzyl-3-(6-hydroxypyridin-3-yl)-N,4-dimethyl-N-neopentyl-5-(trifluoromethyl)-1H-pyrrole-2-carboxamide], the inhibition at 3 µM was in the range of 40 to 75%. As for `Cc1c(-c2ncc(Cl)cn2)c(C(=O)N(C)CC(C)(C)C(N)=O)n(Cc2ccccc2)c1C(F)(F)F` [Example 48, 1-Benzyl-N-(2-carbamoyl-2-methyl-propyl)-3-(5-chloro-pyrimidin-2-yl)-N,4-dimethyl-5-(trifluoromethyl)-1H-pyrrole-2-carboxylic acid amide], the inhibition at 3 µM was above 95%. In the case of `Cc1noc(C)c1-c1c(C)c(C(F)(F)F)n(Cc2ccccc2)c1C(=O)N1CCOCC1` [Example 23, [1-Benzyl-3-(3,5-dimethyl-isoxazol-4-yl)-4-methyl-5-(trifluoromethyl)-1H-pyrrol-2-yl]-morpholin-4-yl-methanone], the inhibition at 3 µM fell in the range of 75 to 95%. Then `Cc1c(-c2cnccn2)c(C(=O)N2CCOCC2)n(Cc2ccccc2)c1C(F)(F)F` [Example 39, (1-Benzyl-4-methyl-3-(pyrazin-2-yl)-5-(trifluoromethyl)-1H-pyrrol-2-yl)(morpholino)methanone], with 40 to 75%; and `Cc1c(-c2ncc(Cl)cn2)c(C(=O)N2CCS(=O)(=O)CC2)n(Cc2ccccc2)c1C(F)(F)F` [Example 44, [1-Benzyl-3-(5-chloro-pyrimidin-2-yl)-4-methyl-5-(trifluoromethyl)-1H-pyrrol-2-yl]-(1,1-dioxo-[1,4]thiazinan-4-yl)-methanone], with 75 to 95%. For the compound `Cc1c(-c2ncc(Cl)cn2)c(C(=O)N(C)CC(C)(C)C#N)n(Cc2ccccc2)c1C(F)(F)F` [Example 49, 1-Benzyl-3-(5-chloro-pyrimidin-2-yl)-N-(2-cyano-2-methyl-propyl)-N,4-dimethyl-5-(trifluoromethyl)-1H-pyrrole-2-carboxylic acid amide], the inhibition at 3 µM is above 95%.

Consider `Cc1c(-c2ccc(F)cn2)c(C(=O)N(C)CC(C)(C)C)n(Cc2ccccc2)c1C(F)(F)F` [Example 31, 1-Benzyl-3-(5-fluoropyridin-2-yl)-N,4-dimethyl-N-neopentyl-5-(trifluoromethyl)-1H-pyrrole-2-carboxamide], for which the inhibition at 3 µM is above 95%. On to `Cc1c(-c2ncc(Cl)cn2)c(C(=O)NC2CC2)n(Cc2ccccc2)c1C(F)(F)F` [Example 46, 1-Benzyl-3-(5-chloro-pyrimidin-2-yl)-N-cyclopropyl-4-methyl-5-(trifluoromethyl)-1H-pyrrole-2-carboxylic acid amide], for which the inhibition at 3 µM was 40 to 75%. The figure for `Cc1c(-c2ncc(Cl)cn2)c(C(=O)N2CCOCC2)n(Cc2ccccc2)c1C(F)(F)F` [Example 25, [1-Benzyl-3-(5-chloro-pyrimidin-2-yl)-4-methyl-5-(trifluoromethyl)-1H-pyrrol-2-yl]-morpholin-4-yl-methanone] is above 95%.

Take `Cc1c(-c2ncccn2)c(C(=O)N(C)CC(C)(C)C)n(Cc2ccccc2)c1C(F)(F)F` [Example 35, 1-Benzyl-N,4-dimethyl-N-neopentyl-3-(pyrimidin-2-yl)-5-(trifluoromethyl)-1H-pyrrole-2-carboxamide]: the inhibition at 3 µM fell in the range of 75 to 95%. The figure for `Cc1c(-c2ncc(Cl)cn2)c(C(=O)N2CCNC(=O)C2)n(Cc2ccccc2)c1C(F)(F)F` [Example 47, 4-[1-Benzyl-3-(5-chloro-pyrimidin-2-yl)-4-methyl-5-(trifluoromethyl)-1H-pyrrole-2-carbonyl]-piperazin-2-one] is 40 to 75%; for `Cc1c(-c2ccc(Cl)cn2)c(C(=O)N2CCOCC2)n(Cc2ccccc2)c1C(F)(F)F` [Example 42, [1-Benzyl-3-(5-chloro-pyridin-2-yl)-4-methyl-5-(trifluoromethyl)-1H-pyrrol-2-yl]-morpholin-4-yl-methanone] it is above 95%. For the compound `Cc1c(-c2ccnnc2)c(C(=O)N(C)CC(C)(C)C)n(Cc2ccccc2)c1C(F)(F)F` [Example 32, 1-Benzyl-N,4-dimethyl-N-neopentyl-3-(pyridazin-4-yl)-5-(trifluoromethyl)-1H-pyrrole-2-carboxamide], the inhibition at 3 µM lay in the range of 75 to 95%.

`Cc1c(-c2ccc(Cl)cn2)c(C(=O)NC(C)C)n(Cc2ccccc2)c1C(F)(F)F` [Example 53, 1-Benzyl-3-(5-chloro-pyridin-2-yl)-N-isopropyl-4-methyl-5-(trifluoromethyl)-1H-pyrrole-2-carboxylic acid amide]: the inhibition at 3 µM is 75 to 95%.
